The text below walks through data of patent US12171229B2, “Heteroaryl-triazole and heteroaryl-tetrazole compounds as pesticides” (BAYER AKTIENGESELLSCHAFT, priority 2018, dated 2024).

The test system of one experiment is Meloidogyne incognita. As to the kind of experiment: Meloidogyne incognita test. It is filed as in vivo. The conditions noted are these: 20 ppm; after 14 days; salad seedlings. The protocol:
Meloidogyne incognita—Test Solvent: 125.0 parts by weight of acetone To produce a suitable preparation of active compound, 1 part by weight of active compound is mixed with the stated amount of solvent, and the concentrate is diluted with water to the desired concentration. Vessels are filled with sand, a solution of the active ingredient, a suspension containing eggs and larvae of the southern root-knot nematode (Meloidogyne incognita) and salad seeds. The salad seeds germinate and the seedlings grow. Galls develop in the roots. After 14 days the nematicidal activity is determined on the basis of the percentage of gall formation. 100% means no galls were found and 0% means the number of galls found on the roots of the treated plants was equal to that in untreated control plants.

In another experiment the test system is Tetranychus urticae. As to the kind of experiment: Tetranychus urticae spray test (OP-resistant). It is filed as in vivo. Conditions: foliar, 144 h, after 6 days, French bean leaf disks. The protocol: Tetranychus urticae—Spray Test (OP-Resistant)
To produce a suitable preparation of active compound, 1 part by weight of active compound is mixed with the stated amount of solvents and is diluted with water, containing an emulsifier concentration of 1000 ppm, to the desired concentration. Further test concentrations are prepared by dilution with emulsifier containing water.
French bean (Phaseolus vulgaris) leaf disks infected with all instars of the two spotted spidermite (Tetranychus urticae), are sprayed with a preparation of the active ingredient of the desired concentration.
After 6 days mortality in % is determined. 100% means all spider mites have been killed and 0% means none of the spider mites have been killed.

For the compound `C[C@H](NC(=O)c1cc(Cl)cc(C(F)(F)F)c1)c1ncnn1-c1ncc(Cl)cc1F` [Example I-013], in the experiment on Meloidogyne incognita, the “nematicidal activity (gall formation)” value is 90%.

Consider `C[C@H](NC(=O)c1cc(Cl)cc(SC(F)(F)F)c1)c1ncnn1-c1ccc(C#N)cn1` [Example I-042], for which the mortality (in general, the percentage killed) at 500 g/ha in the experiment with Tetranychus urticae was 90%.
